Consider 1 compound from patent US20220296635A1 (Board of Regents, The University of Texas System, priority 2013, published 2022).

Structures are written as SMILES.

Experiment [1] relates to osteosarcoma cells (Saos-2 cells). In words: Saos-2 cell proliferation (MTT assay). In kind it is cell-based. The procedure:
Methods of inhibiting cancer growth according to some embodiments described herein were carried out as follows. […] Human mesenchymal stem cells (hMSCs) (Lonza Walkersville Inc., USA) were cultured in growth medium composed of Dulbecco's Modified Eagle's Medium (DMEM) supplemented with 10% FBS and 1% penicillin/streptomycin and then seeded in a 96-well plates at a density of 10^4 cells/mL after 80-90% confluence. […] The hMSCs were incubated with the citrate-supplemented media at 37° C. with 5% CO2. Media were changed every other day. […] After incubating at 37° C. for 4 hrs in MTT working solution, the hMSCs in the 96-well plates were submerged in dimethylsulfoxide (DMSO) for 15 minutes on an orbital shaker under dark conditions. The 96-well plates were then placed on a Micro-plate Reader to obtain absorbance values at 595 nm. In addition, live/dead staining was carried out at pre-determined time points (1 day, 4 days, and 7 days). The hMSCs were stained with live/dead working solution (Life Technologies Inc., USA) for 30 minutes and then observed under a Nikon Inverted Fluorescence Microscope to determine cell viability.
The hMSCs were cultured as described above. The Saos-2 cells were cultured in McCoy's 5A medium (Lonza Walkersville Inc., USA) supplemented with 10% FBS and 1% penicillin/streptomycin. […]
(In general: Tetrazolium assays rely on reduction of a dye to a coloured formazan, in cell work by metabolically active cells.)

Experiment [2] relates to osteopontin (OPN). In words: Osteopontin protein level in hMSCs by Western Blot. It is filed as cell-based, Human. Particulars: 20 μM, 200 μM or 2000 μM citrate; 7 days and 14 days. The procedure:
Methods of promoting bone growth according to some embodiments described herein were carried out as follows. Human mesenchymal stem cells (hMSCs) (Lonza Walkersville Inc., USA) were cultured in Dulbecco's Modified Eagle's Medium (DMEM) supplemented with 10% FBS and 1% penicillin and streptomycin. For differentiation, hMSCs were switched to an osteogenic medium (OGM) comprising the previous DMEM-based medium further supplemented with […] β-glycerophosphate and 50 μM ascorbic acid-2-phosphate. The hMSC cells were seeded at a density of 10^4 cells/mL after 80-90% confluence in 96-well plates. […] Media were changed every other day.

The test system of experiment [3] is Human mesenchymal stem cells (hMSCs). In words: Calcium deposit formation in differentiated hMSC cultures (Von Kossa staining). In kind it is cell-based. The following applies: 20 μM citrate, osteogenic medium; 7, 14 and 21 days. The procedure: Methods of promoting bone growth according to some embodiments described herein were carried out as follows. Human mesenchymal stem cells (hMSCs) (Lonza Walkersville Inc., USA) were cultured in Dulbecco's Modified Eagle's Medium (DMEM) supplemented with 10% FBS and 1% penicillin and streptomycin. […] The hMSC cells were seeded at a density of 10^4 cells/mL after 80-90% confluence in 96-well plates. […] Media were changed every other day.

The test system of experiment [4] is Bone marrow stromal cells (BMSCs). In words: Calcium nodule formation in BMSC cultures (Von Kossa staining). It is filed as cell-based, Sprague-Dawley rats. Particulars: 12 days of osteogenic induction. The procedure:
Methods of promoting bone growth according to some embodiments described herein were carried out as follows. Bone marrow stromal cells (BMSCs) derived from 6 week old male Sprague-Dawley rats were cultured in growth medium containing Minimum Essential Medium Alpha (αMEM) supplemented with 10% (V/V) fetal bovine serum (FBS), 0.25 μg/mL Fungizone, and 1% (V/V) penicillin and streptomycin in 6-well plates at a density of 2×10^5 cells/well (Day 0). […] After 12 days of osteogenic induction, the BMSCs cultures were stained with Von Kossa staining and imaged by optical microscopy. The numbers of calcium nodules per well were counted in the inverted microscope. The total area of the calcium nodules was also calculated. FIG. 6A illustrates microscope images of Von Kossa staining. FIG. 6B illustrates the number of observed calcium nodules. FIG. 6C illustrates the total area of the calcium nodules.

Take `O=C(O)CC(O)(CC(=O)O)C(=O)O` [citrate, citric acid]: the Saos-2 cell proliferation result in experiment [1] (concentrations above 800 μM, 1 day and 4 days) is on record as “inhibit Saos-2 cell proliferation”. The Saos-2 cell killing entry in experiment [1] (concentrations above 2000 μM) is given as “most Saos-2 cells were killed”. For the same compound, the OPN expression entry in experiment [2] was “closely associated in a dose-dependent relationship”. Also, the calcium deposit formation entry in experiment [3] is listed as “able to promote calcium deposit formation”. The “number and size of calcium nodules” value in experiment [4] (citrate concentration of 20 μM) is on record as “induced the highest number of calcium nodules”. Also, the calcium nodule formation result in experiment [4] (citrate-supplemented osteogenic media (2 μM to 5 mM citric acid)) is listed as “promoted calcium module formation in a dose-dependent manner”.
